The record followed here is patent publication US20090048243A1, “THERAPEUTIC AGENT FOR ATTENTION-DEFICIT HYPERACTIVITY DISORDER” (MITSUBISHI PHARMA CORPORATION, priority 2005, published 2009).

Molecules are shown by their SMILES. Where a name gives a salt, the structure may show the parent alone. Read-outs that look alike come from different tables or passages of the source.

A word on the ED50: it is the dose that gives a 50% effect, or the effect in half of the subjects. A word on the Ki: it is the equilibrium dissociation constant of an inhibitor or competing ligand from its target.

Series [1] relates to norepinephrine uptake into mouse cerebral synaptosome. Description: Norepinephrine uptake inhibitory action in crude synaptosome fraction. The note with it: male ddy mouse hyppocampus synaptosome; tritiated norepinephrine; 37° C., 10 minutes; read-out: 50% inhibitory concentration (IC50) for norepinephrine uptake into mouse cerebral synaptosome. Type of series: biochemical. On the procedure: Using a publicly known method (Journal of Pharmacology and Experimental Therapeutics, Vol.165, p.78, 1969) with partial modification, norepinephrine uptake inhibitory action was measured.
A crude synaptosome fraction was separated from the hyppocampus of a male ddy mouse, suspended in Krebs-Henseleit buffer solution (pH 7.4), and used in the experiments. Next, each test compound at several different concentrations was added to the synaptosome suspension and pre-incubated for 5 minutes, after which tritiated norepinephrine (Japan Radioisotope) was added to the reaction liquor, and they were reacted at 37° C. for 10 minutes. After the reaction, the reaction liquor was suction-filtered through a Whatman GF/B filter (NeuroScience, Inc.), and the filter was washed with Krebs-Henseleit buffer solution (pH 7.4), after which radioactivity remaining in the filter was measured using a liquid scintillation counter (Packard company, 3380 model). Norepinephrine concentration dependent uptake was obtained by subtracting the uptake at 0° C. from the uptake at 37° C. 50% inhibitory concentrations were graphically calculated, and inhibition constants (Ki values) were determined.

Series [2] concerns rats with juvenile dopamine neulolysis due to 6-OH-DA treatment. Kind of series: Suppressive effect on increased motor activity in rats with juvenile dopamine neulolysis due to 6-OH-DA treatment. It counts as in vivo, rat. The note with it: for ED50: Rattus norvegicus, read-out: ED50 for the suppression of increased motor activity due to the 6-OH-DA treatment as 100%; for Effect on increased motor activity due to the 6-OH-DA treatment: compound A 1, 3 or 10 mg/kg, Atomoxetine 1, 3, 10 or 30 mg/kg, vs 0.5% HPMC control. How it is done: Suppressive effect on increased motor activity in rats with juvenile dopamine neulolysis due to 6-OH-DA treatment Male SD rats (Charles River Japan) were pre-treated with desipramine (Sigma Ltd.) in accordance with the method of Zhang et al. (Neuropsychopharmacology 2001 November;25(5):624-32) on day 5 after birth, after which 6-hydroxydopamine (hereinafter referred to as 6-OH-DA) (Sigma Ltd.) was administered to the cerebral ventricle on one side. During 12 to 18 days after birth, acclimation to a motor activity measurement apparatus (Toyo Sangyo) was performed three times; on day 19 after birth, motor activity was measured and the animals were grouped. […] For control, 0.5% HPMC (hydroxypropylmethylcellulose) was orally administered.

Series [3] concerns normal rats. Kind of series: Effect on motor activity in normal rats. The conditions noted are these: oral (FIG. 1-B). Type of series: in vivo, rat.
Series [4] has as its target T1, 5-HT2A receptor (Rattus norvegicus, UniProt P14842).
T1 construct: A crude synaptosome fraction was separated from the cerebral cortex of Wistar rats; from tissue; host or cells: Wistar rat cerebral cortex, crude synaptosome fraction
Kind of series: Specific 5-HT2A receptor binding test (tritiated ketanserin, cerebral cortex crude synaptosome fraction). The note with it: Wistar rat cerebral cortex synaptosome; tritiated ketanserin 0.2 nmol/L; 37° C., 20 minutes. On the procedure: A specific 5-HT2A receptor binding test was performed in accordance with a publicly known method (Molecular Pharmacology, Vol.21, p.301, 1981).
A crude synaptosome fraction was separated from the cerebral cortex of Wistar rats at 6 to 12 weeks of age (SEAC Yoshitomi), suspended in 50 mmol/L tris-HCl buffer solution (pH 7.7) (Nacalai Tesque, Inc.), and used in the experiments. Next, each test compound at several different concentrations and tritiated ketanserin (final concentration 0.2 nmol/L) (Japan Radioisotope) were added to the synaptosome suspension, and they were reacted at 37° C. for 20 minutes. After the reaction, the reaction liquor was suction-filtered through a Whatman GF/B filter (NeuroScience, Inc.), and the filter was washed with 50 mmol/L tris-HCl buffer solution (pH 7.7), after which radioactivity remaining in the filter was measured using a liquid scintillation counter (Aloka Co., Ltd.). Non-specific binding was determined in the presence of 10^−5 mmol/L mianserin (Sigma Ltd.). 50% inhibitory concentrations were graphically calculated, and inhibition constants (Ki values) were determined.

T1 sequence (P14842 whole entry): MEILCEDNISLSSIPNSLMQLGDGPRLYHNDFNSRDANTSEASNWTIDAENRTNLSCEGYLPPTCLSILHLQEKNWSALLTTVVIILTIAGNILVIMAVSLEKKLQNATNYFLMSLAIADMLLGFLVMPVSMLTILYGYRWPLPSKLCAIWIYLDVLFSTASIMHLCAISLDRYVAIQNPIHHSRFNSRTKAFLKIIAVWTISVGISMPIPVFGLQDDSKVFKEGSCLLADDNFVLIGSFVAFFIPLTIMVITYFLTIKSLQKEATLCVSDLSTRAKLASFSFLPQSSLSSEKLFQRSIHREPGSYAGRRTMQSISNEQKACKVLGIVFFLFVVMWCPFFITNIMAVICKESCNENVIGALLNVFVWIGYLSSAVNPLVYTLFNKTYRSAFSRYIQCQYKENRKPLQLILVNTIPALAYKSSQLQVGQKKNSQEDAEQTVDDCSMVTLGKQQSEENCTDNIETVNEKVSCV

Consider `c1csc(Cc2ccccc2OC[C@@H]2CNCCO2)c1` [compound A, S-2-[[o-(2-thenyl)phenoxy]methyl]morpholine maleic acid salt], for which the IC50 in series [1] turned out to be 2.6 nM. In series [2] (oral, motor activity during 30 minutes following 1 hour after administration, linear regression), the ED50 is 1.7 mg/kg. Besides, the “Dose from which a significant difference in suppression of increased motor activity was observed” value in series [2] (oral, P<0.01 versus control (Dunnett method)) is given as no less than 3 mg/kg. Besides, the “Effect on increased motor activity due to the 6-OH-DA treatment” value in series [2] (oral) was “dose-dependently inhibited”. Besides, in series [3], the “Suppression of motor activity in normal rats” value is on record as “no significant suppression of motor activity was observed”. Also, in series [4], the inhibitory constant (Ki) was 26 nM.
For the molecule `c1csc(Cc2ccccc2OC[C@H]2CNCCO2)c1` [B, R-2-[[o-(2-thenyl)phenoxy]methyl]morpholine maleic acid salt], the IC50 in series [1] was 33 nM. In series [4], this molecule registered a Ki of 1000 nM.
For `c1csc(Cc2ccccc2OCC2CNCCO2)c1` (racemic) [teniloxazine, (±)-2-[[o-(2-thenyl)phenoxy]methyl]morpholine maleic acid salt, reference compound], the IC50 in series [1] is 12 nM. The inhibition constant Ki in series [4] turned out to be 49 nM.
`CNCCC(Oc1ccccc1C)c1ccccc1.Cl` (single isomer, unassigned; (-)) [Atomoxetine, (−)-N-methyl-3-((2-methylphenyl)oxy)-3-phenyl-1-aminopropane hydrochloride, reference compound]: the 50% effective dose (ED50) in series [2] (po) was 24 mg/kg. For the same molecule, the “Effect on increased motor activity due to the 6-OH-DA treatment” value in series [2] (oral) is on record as “dose-dependently suppressed, but no significant suppression was observed”.
